By inhibition is commonly meant the relative decrease from the control value, in per cent.

The test has as its target T1, KIT T670I (Homo sapiens, UniProt P10721, T670I).
T1 construct: purchased Thermo Fisher Scientific (Life Technologies) SelectScreen
Kind of test: SelectScreen Z'LYTE. Type of test: biochemical. A digest of the protocol: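 NU5455 was profiled across the SelectScreen Broad panel of kinase activity and binding assays. Z'LYTE reactions such as CSF1R ran at apparent Km ATP, while the Adapta CAMK1 assay used ATP listed as 10. Values are given as percent.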

T1 sequence (P10721 26-976 T670I): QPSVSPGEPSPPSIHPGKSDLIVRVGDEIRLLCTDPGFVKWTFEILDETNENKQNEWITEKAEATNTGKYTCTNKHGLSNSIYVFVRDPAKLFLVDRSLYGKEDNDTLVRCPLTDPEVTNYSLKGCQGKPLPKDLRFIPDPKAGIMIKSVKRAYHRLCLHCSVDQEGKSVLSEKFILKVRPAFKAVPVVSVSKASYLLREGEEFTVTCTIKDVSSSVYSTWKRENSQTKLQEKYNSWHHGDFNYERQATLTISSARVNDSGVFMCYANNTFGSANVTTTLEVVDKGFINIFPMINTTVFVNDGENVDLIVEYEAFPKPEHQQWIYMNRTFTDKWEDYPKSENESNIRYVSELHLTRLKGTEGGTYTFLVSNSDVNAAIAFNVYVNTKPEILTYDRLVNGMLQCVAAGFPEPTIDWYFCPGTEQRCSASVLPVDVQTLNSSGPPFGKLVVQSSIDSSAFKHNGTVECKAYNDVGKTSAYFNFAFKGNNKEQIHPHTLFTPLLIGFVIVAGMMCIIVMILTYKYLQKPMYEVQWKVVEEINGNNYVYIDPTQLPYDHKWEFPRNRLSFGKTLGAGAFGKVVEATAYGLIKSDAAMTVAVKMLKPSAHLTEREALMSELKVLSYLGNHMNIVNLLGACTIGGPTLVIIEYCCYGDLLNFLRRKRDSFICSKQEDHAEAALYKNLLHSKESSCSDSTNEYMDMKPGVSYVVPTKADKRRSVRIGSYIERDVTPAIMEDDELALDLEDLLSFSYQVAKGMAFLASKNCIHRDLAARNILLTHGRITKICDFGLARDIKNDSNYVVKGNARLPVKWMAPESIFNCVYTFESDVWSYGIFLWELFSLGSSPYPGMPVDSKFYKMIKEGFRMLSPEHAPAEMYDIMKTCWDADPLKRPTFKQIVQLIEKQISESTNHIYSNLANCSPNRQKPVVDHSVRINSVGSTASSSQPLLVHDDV

Take `CN(C(=O)CN1CCOCC1)c1ccc2sc3c(-c4cccc5c(=O)cc(N6CC7CCC(C6)O7)oc45)cccc3c2c1` [NU5455]: the inhibition at 1 µM was -24.4%.

The record behind these values is publication PMC6934184, “Selective DNA-PKcs inhibition extends the therapeutic index of localized radiotherapy and chemotherapy” (The Journal of Clinical Investigation, 2019).
